Data as given in patent US20040102438A1, “Gaba-receptor modulators for the treatment of neurodegenerative diseases of the eye” (priority 2001, published 2004).

What was measured:
[1] = Properties of the active ingredients (solubility, lipophilicity); assay type: physicochemical
[2] = system: cultured cortical cells of the rat; assay: L-glutamate excitotoxicity in cultured cortical cells, cell death by LDH release (Tests 1 and 2); assay type: cell-based; conditions: active ingredient 500 nm plus 10 nm L-glutamate; after 10, 30 and 60 minutes compared with the control group (FIG. 1, FIG. 2)
Description: Dissociated cortical cells from 16-18 day old fetal rats were bred in 35 mm dishes. The nutrient medium contained during the first 7 days L-lutamine (4 mM), glucose (6 g/l), penicillin (100 U/ml), streptomycin (100 μg/ml) and 10% hormonally enriched medium, which [contained] transferrin (1 mg/ml), insulin (250 μg/ml), putrescine (600 μM), sodium selenite (0.3 μM), progesterone (0.2 μM) and estradio (0.1 μM). The dishes were stored in an atmosphere (5% CO2 and […]) heated to 37 degrees Celsius.
To form the control group (Series 1), half of the dishes were supplemented with the nutrient medium 10 nm L-glutamate and incubated under normotoxic conditions for 4 hours.
To determine the neuroprotective properties, the other half of the dishes were supplemented with the nutrient medium flunitrazepam 500 nm and 10 nm L-glutamate (Series 2) and likewise incubated under normotoxic conditions.
The number of surviving or devitalized cells was determined by determination of the amount of lactate-dehydrogenase (LDH) ejected into the cell medium. The LDH activity was determined photospectrometrically by measurement of the NADH metabolism at 340 nm. […]
In the diagrams of FIG. 1 and FIG. 2 the measured values were entered as follows: The measured value describes the number of dead cells after the test in relation to the total number of cells before the test in percent. […]

Compound	water solubility [1]	number of dying cells [2]
Cc1ncc2n1-c1ccc(Cl)cc1C(c1ccccc1F)=NC2 [Midazolam]	water-soluble	
COCc1c(C(=O)OC(C)C)ncc2[nH]c3ccc(OCc4ccccc4)cc3c12 [abecamil, abecarnil]		reduction in the number of dying cells
CN1C(=O)CN=C(c2ccccc2F)c2cc([N+](=O)[O-])ccc21 [flunitrazepam]		reduction in the number of dying cells
